Kd data for 16 compounds are collected here from ChEMBL document CHEMBL3588828, “A Selective, Cell-Permeable Nonphosphorylated Bicyclic Peptidyl Inhibitor against Peptidyl-Prolyl Isomerase Pin1” (J Med Chem, 2015).

The target in this assay is Peptidyl-prolyl cis-trans isomerase NIMA-interacting 1 (Homo sapiens, UniProt Q13526, S16A/Y23A). Kind of assay: Binding affinity to N-terminal MBP fused and Texas-red-labeled full-length human Pin1 S16A/Y23A mutant expressed in Escherichia coli assessed as increase in fluorescence anisotropy by spectrofluorimetry. Conditions: read-out: Kd. (Fluorescence polarisation rises when a labelled molecule tumbles more slowly, as on binding a larger partner.)

The term Kd denotes the equilibrium constant for the complex coming apart.

Chain of Peptidyl-prolyl cis-trans isomerase NIMA-interacting 1 (Q13526 whole entry S16A/Y23A, the tested form may be a part): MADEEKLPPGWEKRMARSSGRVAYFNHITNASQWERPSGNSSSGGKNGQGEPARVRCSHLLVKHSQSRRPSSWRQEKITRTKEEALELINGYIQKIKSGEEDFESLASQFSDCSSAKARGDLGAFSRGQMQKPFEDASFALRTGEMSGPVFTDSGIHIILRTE

With `CC(C)[C@@H]1NC(=O)[C@H](CCCNC(=N)N)NC(=O)[C@H](Cc2ccc3ccccc3c2)NC(=O)[C@H]2CCCCN2C(=O)[C@@H](CC(=O)O)NC(=O)CN(C)C(=O)[C@@H]2CCCN2C(=O)c2cc3cc(c2)C(=O)NC[C@H](NC(=O)[C@@H](C)NC1=O)C(=O)N[C@@H](Cc1ccccc1)C(=O)N[C@@H](Cc1ccc2ccccc2c1)C(=O)N[C@@H](CCCNC(=N)N)C(=O)N[C@@H](CCCNC(=N)N)C(=O)N[C@@H](CCCNC(=N)N)C(=O)N[C@@H](CCCNC(=N)N)C(=O)N[C@H](C(=O)N[C@@H](CCCCN)C(=O)O)CNC3=O`, the Kd stood at 1750 nM.

As to `C[C@@H]1NC(=O)[C@H](CCCNC(=N)N)NC(=O)[C@H](Cc2ccc3ccccc3c2)NC(=O)[C@H]2CCCCN2C(=O)[C@@H]([C@H](C)O)NC(=O)[C@H](Cc2ccc(F)cc2)NC(=O)[C@@H](Cc2ccccc2)NC(=O)c2cc3cc(c2)C(=O)NC[C@H](NC(=O)[C@@H](Cc2ccccc2)NC1=O)C(=O)N[C@@H](CCCNC(=N)N)C(=O)N[C@@H](CCCNC(=N)N)C(=O)N[C@@H](Cc1ccc2ccccc2c1)C(=O)N[C@@H](Cc1ccccc1)C(=O)N[C@@H](CCCNC(=N)N)C(=O)N[C@@H](CCCNC(=N)N)C(=O)N[C@H](C(=O)N[C@@H](CCCCN)C(=O)O)CNC3=O`, the Kd amounted to 1380 nM.

With `C[C@H]1NC(=O)[C@H](Cc2ccc(O)cc2)NC(=O)[C@H](CCCNC(=N)N)NC(=O)[C@H](Cc2ccc3ccccc3c2)NC(=O)[C@H]2CCCCN2C(=O)[C@@H](CC(=O)O)NC(=O)CN(C)C(=O)[C@@H]2CCCN2C(=O)c2cc3cc(c2)C(=O)NC[C@H](NC1=O)C(=O)N[C@@H](Cc1ccccc1)C(=O)N[C@@H](Cc1ccc2ccccc2c1)C(=O)N[C@@H](CCCNC(=N)N)C(=O)N[C@@H](CCCNC(=N)N)C(=O)N[C@@H](CCCNC(=N)N)C(=O)N[C@@H](CCCNC(=N)N)C(=O)N[C@H](C(=O)N[C@@H](CCCCN)C(=O)O)CNC3=O`, the dissociation constant (Kd) was determined as 2170 nM.

For the compound `C[C@@H]1NC(=O)[C@H](CCCNC(=N)N)NC(=O)[C@H](Cc2ccc3ccccc3c2)NC(=O)[C@H]2CCCCN2C(=O)[C@@H]([C@H](C)O)NC(=O)[C@H](Cc2ccc(F)cc2)NC(=O)[C@@H](Cc2ccccc2)NC(=O)c2cc3cc(c2)C(=O)NC[C@@H](C(=O)N[C@@H](CCCCN)C(=O)O)NC(=O)[C@H](CCCNC(=N)N)NC(=O)[C@H](CCCNC(=N)N)NC(=O)[C@H](CCCNC(=N)N)NC(=O)[C@H](CCCNC(=N)N)NC(=O)[C@H](Cc2ccc4ccccc4c2)NC(=O)[C@H](Cc2ccccc2)NC(=O)[C@H](CNC3=O)NC1=O`, the Kd stood at 900 nM.

As to `C[C@@H]1NC(=O)[C@H](CCCNC(=N)N)NC(=O)[C@H](Cc2ccc3ccccc3c2)NC(=O)[C@H]2CCCCN2C(=O)[C@@H]([C@H](C)O)NC(=O)[C@H](Cc2cnc[nH]2)NC(=O)[C@@H](Cc2ccccc2)NC(=O)c2cc3cc(c2)C(=O)NC[C@H](NC(=O)[C@@H](C)NC1=O)C(=O)N[C@@H](Cc1ccccc1)C(=O)N[C@@H](Cc1ccc2ccccc2c1)C(=O)N[C@@H](CCCNC(=N)N)C(=O)N[C@@H](CCCNC(=N)N)C(=O)N[C@@H](CCCNC(=N)N)C(=O)N[C@@H](CCCNC(=N)N)C(=O)N[C@H](C(=O)N[C@@H](CCCCN)C(=O)O)CNC3=O`, the dissociation constant (Kd) stood at 1680 nM.

As for `C[C@@H]1NC(=O)[C@H](CCCNC(=N)N)NC(=O)[C@H](Cc2ccc3ccccc3c2)NC(=O)[C@H]2CCCCN2C(=O)[C@@H](CC(=O)O)NC(=O)CN(C)C(=O)[C@@H]2CCCN2C(=O)c2cc3cc(c2)C(=O)NC[C@H](NC(=O)[C@@H](C)NC(=O)[C@@H](C)NC1=O)C(=O)N[C@@H](Cc1ccccc1)C(=O)N[C@@H](Cc1ccc2ccccc2c1)C(=O)N[C@@H](CCCNC(=N)N)C(=O)N[C@@H](CCCNC(=N)N)C(=O)N[C@@H](CCCNC(=N)N)C(=O)N[C@@H](CCCNC(=N)N)C(=O)N[C@H](C(=O)N[C@@H](CCCCN)C(=O)O)CNC3=O`, the equilibrium dissociation constant (Kd) was determined as 2490 nM.

For `C[C@@H]1NC(=O)[C@H](CCCNC(=N)N)NC(=O)[C@H](Cc2ccc3ccccc3c2)NC(=O)[C@H]2CCCCN2C(=O)[C@@H](CC(=O)O)NC(=O)CN(C)C(=O)[C@@H]2CCCN2C(=O)c2cc3cc(c2)C(=O)NC[C@H](NC(=O)[C@@H](C)NC1=O)C(=O)N[C@@H](Cc1ccccc1)C(=O)N[C@@H](Cc1ccc2ccccc2c1)C(=O)N[C@@H](CCCNC(=N)N)C(=O)N[C@@H](CCCNC(=N)N)C(=O)N[C@@H](CCCNC(=N)N)C(=O)N[C@@H](CCCNC(=N)N)C(=O)N[C@H](C(=O)N[C@@H](CCCCN)C(=O)O)CNC3=O` (stereo in doubt; 10), the Kd is 3420 nM.

`C[C@@H]1NC(=O)[C@H](CCCNC(=N)N)NC(=O)[C@H](Cc2ccc3ccccc3c2)NC(=O)[C@H]2CCCCN2C(=O)[C@@H](CC(=O)O)NC(=O)CN(C)C(=O)[C@@H]2CCCN2C(=O)c2cc3cc(c2)C(=O)NC[C@@H](C(=O)N[C@@H](CCCCN)C(=O)O)NC(=O)[C@H](CCCNC(=N)N)NC(=O)[C@H](CCCNC(=N)N)NC(=O)[C@H](CCCNC(=N)N)NC(=O)[C@H](CCCNC(=N)N)NC(=O)[C@H](Cc2ccc4ccccc4c2)NC(=O)[C@H](Cc2ccccc2)NC(=O)[C@H](CNC3=O)NC(=O)CCNC1=O`: the Kd came to 2080 nM.

Turning to `C[C@@H]1NC(=O)[C@H](CCCNC(=N)N)NC(=O)[C@H](Cc2ccc3ccccc3c2)NC(=O)[C@H]2CCCCN2C(=O)[C@@H]([C@H](C)O)NC(=O)[C@H](Cc2ccc(F)cc2)NC(=O)[C@@H](Cc2ccccc2)NC(=O)c2cc3cc(c2)C(=O)NC[C@H](NC(=O)[C@@H](Cc2ccccc2)NC1=O)C(=O)N[C@H](CCCNC(=N)N)C(=O)N[C@@H](CCCNC(=N)N)C(=O)N[C@H](CCCNC(=N)N)C(=O)N[C@@H](CCCNC(=N)N)C(=O)N[C@@H](Cc1ccc2ccccc2c1)C(=O)N[C@@H](Cc1ccccc1)C(=O)N[C@H](C(=O)N[C@@H](CCCCN)C(=O)O)CNC3=O`, the Kd came to 3100 nM.

Turning to `C[C@H]1NC(=O)[C@H](CCCNC(=N)N)NC(=O)[C@H](CCCNC(=N)N)NC(=O)[C@H](Cc2ccc3ccccc3c2)NC(=O)[C@H]2CCCCN2C(=O)[C@@H](CC(=O)O)NC(=O)CN(C)C(=O)[C@@H]2CCCN2C(=O)c2cc3cc(c2)C(=O)NC[C@H](NC1=O)C(=O)N[C@@H](Cc1ccccc1)C(=O)N[C@@H](Cc1ccc2ccccc2c1)C(=O)N[C@@H](CCCNC(=N)N)C(=O)N[C@@H](CCCNC(=N)N)C(=O)N[C@@H](CCCNC(=N)N)C(=O)N[C@@H](CCCNC(=N)N)C(=O)N[C@H](C(=O)N[C@@H](CCCCN)C(=O)O)CNC3=O`, the dissociation constant (Kd) worked out at 720 nM.

`C[C@@H]1NC(=O)CCNC(=O)[C@H](CCCNC(=N)N)NC(=O)[C@H](Cc2ccc3ccccc3c2)NC(=O)[C@H]2CCCCN2C(=O)[C@@H](CC(=O)O)NC(=O)CN(C)C(=O)[C@@H]2CCCN2C(=O)c2cc3cc(c2)C(=O)NC[C@@H](C(=O)N[C@@H](CCCCN)C(=O)O)NC(=O)[C@H](CCCNC(=N)N)NC(=O)[C@H](CCCNC(=N)N)NC(=O)[C@H](CCCNC(=N)N)NC(=O)[C@H](CCCNC(=N)N)NC(=O)[C@H](Cc2ccc4ccccc4c2)NC(=O)[C@H](Cc2ccccc2)NC(=O)[C@H](CNC3=O)NC1=O`: the dissociation constant (Kd) worked out at 1750 nM.

Take `C[C@@H]1NC(=O)[C@H](CCCNC(=N)N)NC(=O)[C@H](Cc2ccc3ccccc3c2)NC(=O)[C@H]2CCCCN2C(=O)[C@@H](CC(=O)O)NC(=O)CN(C)C(=O)[C@@H]2CCCN2C(=O)c2cc3cc(c2)C(=O)NC[C@H](NC(=O)[C@@H](C)NC1=O)C(=O)N[C@@H](Cc1ccccc1)C(=O)N[C@@H](Cc1ccc2ccccc2c1)C(=O)N[C@@H](CCCNC(=N)N)C(=O)N[C@@H](CCCNC(=N)N)C(=O)N[C@@H](CCCNC(=N)N)C(=O)N[C@@H](CCCNC(=N)N)C(=O)N[C@H](C(=O)N[C@@H](CCCCN)C(=O)O)CNC3=O` (stereo in doubt; 3): the Kd came out at 870 nM.

In the case of `C[C@@H]1NC(=O)[C@H](CCCNC(=N)N)NC(=O)[C@H](Cc2ccc3ccccc3c2)NC(=O)[C@H]2CCCCN2C(=O)[C@@H](CC(=O)O)NC(=O)CN(C)C(=O)[C@@H]2CCCN2C(=O)c2cc3cc(c2)C(=O)NC[C@@H](C(=O)N[C@@H](CCCCN)C(=O)O)NC(=O)[C@H](CCCNC(=N)N)NC(=O)[C@H](CCCNC(=N)N)NC(=O)[C@H](CCCNC(=N)N)NC(=O)[C@H](CCCNC(=N)N)NC(=O)[C@H](Cc2ccc4ccccc4c2)NC(=O)[C@H](Cc2ccccc2)NC(=O)[C@H](CNC3=O)NC1=O`, the Kd stood at 2590 nM.

As to `C[C@H]1NC(=O)[C@H](CC(=O)O)NC(=O)[C@H](CCCNC(=N)N)NC(=O)[C@H](Cc2ccc3ccccc3c2)NC(=O)[C@H]2CCCCN2C(=O)[C@@H](CC(=O)O)NC(=O)CN(C)C(=O)[C@@H]2CCCN2C(=O)c2cc3cc(c2)C(=O)NC[C@H](NC1=O)C(=O)N[C@@H](Cc1ccccc1)C(=O)N[C@@H](Cc1ccc2ccccc2c1)C(=O)N[C@@H](CCCNC(=N)N)C(=O)N[C@@H](CCCNC(=N)N)C(=O)N[C@@H](CCCNC(=N)N)C(=O)N[C@@H](CCCNC(=N)N)C(=O)N[C@H](C(=O)N[C@@H](CCCCN)C(=O)O)CNC3=O`, the Kd came to 3190 nM.

`C[C@@H]1NC(=O)[C@H](CCCNC(=N)N)NC(=O)[C@H](Cc2ccc3ccccc3c2)NC(=O)[C@H]2CCCCN2C(=O)[C@@H]([C@H](C)O)NC(=O)[C@H](Cc2ccc(F)cc2)NC(=O)[C@@H](Cc2ccccc2)NC(=O)c2cc3cc(c2)C(=O)NC[C@H](NC(=O)[C@@H](Cc2ccccc2)NC1=O)C(=O)N[C@@H](CCCNC(=N)N)C(=O)N[C@@H](Cc1ccc2ccccc2c1)C(=O)N[C@@H](CCCNC(=N)N)C(=O)N[C@@H](Cc1ccccc1)C(=O)N[C@@H](CCCNC(=N)N)C(=O)N[C@@H](CCCNC(=N)N)C(=O)N[C@H](C(=O)N[C@@H](CCCCN)C(=O)O)CNC3=O`: the equilibrium dissociation constant (Kd) turned out to be 450 nM.

`CN1CC(=O)N[C@H](CC(=O)O)C(=O)N2CCCC[C@@H]2C(=O)N[C@@H](Cc2ccc3ccccc3c2)C(=O)N[C@@H](CCCNC(=N)N)C(=O)NCCC(=O)NCCC(=O)N[C@H]2CNC(=O)c3cc(cc(c3)C(=O)N3CCC[C@H]3C1=O)C(=O)NC[C@@H](C(=O)N[C@@H](CCCCN)C(=O)O)NC(=O)[C@H](CCCNC(=N)N)NC(=O)[C@H](CCCNC(=N)N)NC(=O)[C@H](CCCNC(=N)N)NC(=O)[C@H](CCCNC(=N)N)NC(=O)[C@H](Cc1ccc3ccccc3c1)NC(=O)[C@H](Cc1ccccc1)NC2=O`: the Kd was determined as 4830 nM.
